# According to patent US20230121313A1 (priority 2019, published 2023):
# Columns and labels:
# [1] = tested on: patients with treatment-resistant depression (TRD); experiment: BPRS positive symptom subscale, phase 2 dose-response study in TRD; assay type: in vivo, human
# Method: (§1) Adverse events were monitored throughout the study. Other safety assessments (i.e., laboratory tests, vital signs, physical examination) were performed at pre-specified time points. Vital signs, the Clinician Administered Dissociative States Scale (CADSS; Bremner, “Measurement of dissociative states with the clinician-administered dissociative states scale (CADSS)”, J. Traumatic Stress, 1998, 11(1):125-136), and the 4-item positive symptom subscale from the Brief Psychiatric Rating Scale (BPRS; Overall, “The Brief Psychiatric Rating Scale. Psychological Reports”, 1962, 10:799-812) were assessed pre-dose, at 40 minutes, and 2 hours post-dose.
# [2] = tested on: patients with treatment-resistant depression (TRD); experiment: Adverse events, phase 2 dose-response study in TRD; assay type: in vivo, human; conditions: double-blind
# Method: as §1
# Safety data were analyzed in Period 1, Period 2, double-blind, and open-label data sets, for all subjects receiving at least 1 dose of study medication.
compound,measurement,setting,value
"CN[C@]1(c2ccccc2Cl)CCCCC1=O [esketamine, (S)-2-(2-chlorophenyl)-2-(methylamino)cyclohexanone]",Symptoms suggestive of psychosis (BPRS-positive assessment),[1],No participant manifested symptoms suggestive of psychosis
same,"Dissociation, number of participants","[2]; esketamine 28 mg, N = 19",0
same,"Dissociative disorder, % of participants","[2]; esketamine 28 mg, N = 19",(11) %
same,"Dissociative disorder, number of participants","[2]; esketamine 28 mg, N = 19",2
same,"Dizziness, % of participants","[2]; esketamine 28 mg, N = 19",(21) %
same,"Dizziness, number of participants","[2]; esketamine 28 mg, N = 19",4
same,"Dysgeusia, % of participants","[2]; esketamine 28 mg, N = 19",(11) %
same,"Dysgeusia, number of participants","[2]; esketamine 28 mg, N = 19",2
same,"Feeling abnormal, % of participants","[2]; esketamine 28 mg, N = 19",(11) %
same,"Feeling abnormal, number of participants","[2]; esketamine 28 mg, N = 19",2
same,"Headache, % of participants","[2]; esketamine 28 mg, N = 19",(32) %
same,"Headache, number of participants","[2]; esketamine 28 mg, N = 19",6
same,"Hypersomnia, % of participants","[2]; esketamine 28 mg, N = 19",(11) %
same,"Hypersomnia, number of participants","[2]; esketamine 28 mg, N = 19",2
same,"Hypertension, number of participants","[2]; esketamine 28 mg, N = 19",0
same,"Hypoesthesia oral, % of participants","[2]; esketamine 28 mg, N = 19",(5) %
same,"Hypoesthesia oral, number of participants","[2]; esketamine 28 mg, N = 19",1
same,"Insomnia, number of participants","[2]; esketamine 28 mg, N = 19",0
same,"Nasal discomfort, number of participants","[2]; esketamine 28 mg, N = 19",0
same,"Nausea, % of participants","[2]; esketamine 28 mg, N = 19",(11) %
same,"Nausea, number of participants","[2]; esketamine 28 mg, N = 19",2
same,"Oropharyngeal pain, number of participants","[2]; esketamine 28 mg, N = 19",0
same,"Polyuria, number of participants","[2]; esketamine 28 mg, N = 19",0
same,"Sedation, % of participants","[2]; esketamine 28 mg, N = 19",(5) %
same,"Sedation, number of participants","[2]; esketamine 28 mg, N = 19",1
same,"Throat irritation, % of participants","[2]; esketamine 28 mg, N = 19",(5) %
same,"Throat irritation, number of participants","[2]; esketamine 28 mg, N = 19",1
same,"Total with events, % of participants","[2]; esketamine 28 mg, N = 19",(58) %
same,"Total with events, number of participants","[2]; esketamine 28 mg, N = 19",11
same,"Tunnel vision, number of participants","[2]; esketamine 28 mg, N = 19",0
same,"Vertigo, % of participants","[2]; esketamine 28 mg, N = 19",(11) %
same,"Vertigo, number of participants","[2]; esketamine 28 mg, N = 19",2
same,"Vision blurred, number of participants","[2]; esketamine 28 mg, N = 19",0
same,"Dissociation, % of participants","[2]; esketamine 56 mg, N = 20",(35) %
same,"Dissociation, number of participants","[2]; esketamine 56 mg, N = 20",7
same,"Dissociative disorder, % of participants","[2]; esketamine 56 mg, N = 20",(5) %
same,"Dissociative disorder, number of participants","[2]; esketamine 56 mg, N = 20",1
same,"Dizziness, % of participants","[2]; esketamine 56 mg, N = 20",(40) %
same,"Dizziness, number of participants","[2]; esketamine 56 mg, N = 20",8
same,"Dysgeusia, % of participants","[2]; esketamine 56 mg, N = 20",(15) %
same,"Dysgeusia, number of participants","[2]; esketamine 56 mg, N = 20",3
same,"Feeling abnormal, % of participants","[2]; esketamine 56 mg, N = 20",(5) %
same,"Feeling abnormal, number of participants","[2]; esketamine 56 mg, N = 20",1
same,"Headache, % of participants","[2]; esketamine 56 mg, N = 20",(15) %
same,"Headache, number of participants","[2]; esketamine 56 mg, N = 20",3
same,"Hypersomnia, number of participants","[2]; esketamine 56 mg, N = 20",0
same,"Hypertension, % of participants","[2]; esketamine 56 mg, N = 20",(10) %
same,"Hypertension, number of participants","[2]; esketamine 56 mg, N = 20",2
same,"Hypoesthesia oral, % of participants","[2]; esketamine 56 mg, N = 20",(20) %
same,"Hypoesthesia oral, number of participants","[2]; esketamine 56 mg, N = 20",4
same,"Insomnia, % of participants","[2]; esketamine 56 mg, N = 20",(10) %
same,"Insomnia, number of participants","[2]; esketamine 56 mg, N = 20",2
same,"Nasal discomfort, % of participants","[2]; esketamine 56 mg, N = 20",(10) %
same,"Nasal discomfort, number of participants","[2]; esketamine 56 mg, N = 20",2
same,"Nausea, % of participants","[2]; esketamine 56 mg, N = 20",(20) %
same,"Nausea, number of participants","[2]; esketamine 56 mg, N = 20",4
same,"Oropharyngeal pain, % of participants","[2]; esketamine 56 mg, N = 20",(5) %
same,"Oropharyngeal pain, number of participants","[2]; esketamine 56 mg, N = 20",1
same,"Polyuria, % of participants","[2]; esketamine 56 mg, N = 20",(10) %
same,"Polyuria, number of participants","[2]; esketamine 56 mg, N = 20",2
same,"Sedation, % of participants","[2]; esketamine 56 mg, N = 20",(10) %
same,"Sedation, number of participants","[2]; esketamine 56 mg, N = 20",2
same,"Throat irritation, number of participants","[2]; esketamine 56 mg, N = 20",0
same,"Total with events, % of participants","[2]; esketamine 56 mg, N = 20",(80) %
same,"Total with events, number of participants","[2]; esketamine 56 mg, N = 20",16
same,"Tunnel vision, number of participants","[2]; esketamine 56 mg, N = 20",0
same,"Vertigo, % of participants","[2]; esketamine 56 mg, N = 20",(5) %
same,"Vertigo, number of participants","[2]; esketamine 56 mg, N = 20",1
same,"Vision blurred, number of participants","[2]; esketamine 56 mg, N = 20",0
same,"Dissociation, % of participants","[2]; esketamine 84 mg, N = 17",(24) %
same,"Dissociation, number of participants","[2]; esketamine 84 mg, N = 17",4
same,"Dissociative disorder, % of participants","[2]; esketamine 84 mg, N = 17",(24) %
same,"Dissociative disorder, number of participants","[2]; esketamine 84 mg, N = 17",4
same,"Dizziness, % of participants","[2]; esketamine 84 mg, N = 17",(47) %
same,"Dizziness, number of participants","[2]; esketamine 84 mg, N = 17",8
same,"Dysgeusia, % of participants","[2]; esketamine 84 mg, N = 17",(29) %
same,"Dysgeusia, number of participants","[2]; esketamine 84 mg, N = 17",5
